Test results published in patent US6733690B1, “Laterally substituted curable liquid crystals” (Rolic AG, priority 1999, dated 2004).

Key:
Solubility in MPK = assay type: physicochemical; conditions: solvent MPK

Row | Compound | Solubility in MPK (Solubility in MPK) [%] | melting point [°C]
1 | C=CC(=O)OCCCCCCOc1ccc(C(=O)Oc2ccc(OC(=O)c3ccc(OCCCCCCOC(=O)C=C)cc3)c(C(=O)OCCCCCCCCOc3ccc(-c4ccc(C#N)cc4)cc3)c2)cc1 | 7.2 | 72
2 | C=CC(=O)OCCCCCCOc1ccc(C(=O)Oc2ccc(OC(=O)c3ccc(OCCCCCCOC(=O)C=C)cc3)c(C(=O)OCCOCCOc3ccc(-c4ccc(C#N)cc4)cc3)c2)cc1 | 33.2 | 54
